We go through two molecules from paper PMC10107299, “Neutralizing the Impact of the Virulence Factor LecA from Pseudomonas aeruginosa on Human Cells with New Glycomimetic Inhibitors” (Angewandte Chemie (International Ed. in English), 2023).

≈ marks a conversion by molar mass, not a printed value. Read-outs that look alike come from different tables or passages of the source.

Data set [1] is described as follows: Kinetic solubility in TBS/Ca2+ buffer (HPLC-MS). Format: physicochemical. Conditions: aqueous buffer, kinetic from dmso stock; TBS/Ca2+ buffer pH 7.4, 1 % DMSO, N≥3; read-out: Solubility S (kinetic). The procedure:
Next, we quantified the solubility of at least one representative of each new class and of one parent bisacylhydrazone in aqueous media (Table 1). […]
TBS/Ca2+ buffer (20 mM Tris, 137 mM NaCl, 2.6 mM KCl at pH 7.4 supplemented with 1 mM […]
CaCl2) in presence of 25% DMSO. […]
Kinetic solubility was determined on the analytical HPLC-MS using Compass QuantAnalysis quantification software (Bruker). Samples were prepared from DMSO stock solutions by dilution with TBS/Ca2+ buffer to 100 µM with 1% DMSO present. Samples were incubated on a shaker for 1 h at r.t., centrifuged (21380 g, 20 min), supernatants were diluted with DMSO (1:3), analyzed by HPLC-MS and fitted to the individual calibration curves.
Every experiment was repeated independently at least three times. […]

Data set [2] is described as follows: In vitro metabolic stability, mouse liver microsomes. It counts as in vitro ADME. To be noted: N=3, read-out: CLint MLM. The procedure: (§1) Acetonitrile and caffeine were dispensed using a Mantis Formulatrix. Then samples were centrifuged for 20 min at 2.270 x g at 4 °C and the supernatants were transferred to 96-well Greiner V-bottom plates. Peak areas of each compound and of the internal standard were analyzed using the MultiQuant 3.0 software (AB Sciex). Peak areas of the respective compound were normalized to the internal standard peak area and to the respective peak areas at time point 0 min: (C/D)/(A/B) with A: peak area of the compound at time point 0 min, B: peak area of the internal standard at time point 0 min, C: peak area of the compound at the respective time point, D: peak area of the internal standard at the respective time point.
(§2) In vitro metabolic stability assay
(§3) Liver microsomes (mouse and human, Thermo Fisher) were thawed slowly on ice. 20 mg/mL of microsomes, 2 µL of a 100 µM solution of every compound and 183 µL of 100 mM phosphate buffer were incubated 5 min at 37 °C in a water bath. Reactions were initiated using 10 µL of 20 mM NADPH (CarlRoth). Samples were incubated in three replicates at 37 °C under gentle agitation at 150 rpm. At 0, 5, 15, 30, and 60 min, reactions were terminated by the addition of 180 µL acetonitrile using a Mantis Formulatrix dispenser. Samples were vortexed for 5 min using an Eppendorf MixMate vortex mixer and centrifuged at 2.270 x g for 20 min at 4 °C. The supernatants were transferred to 96-well Greiner V-bottom plates, sealed and analyzed according to the section HPLC-MS analysis. Peak areas of the respective time point of the compounds were normalized to the peak area at time point 0 min. Then half-life was calculated using linear regression (Microsoft Excel). Clint [µL/min/mg protein] was calculated using the following formula: […]
Background: Liver microsomes are a subcellular fraction often used to study metabolism.

A short description of data set [3]: In vitro metabolic stability, human liver microsomes. Format: in vitro ADME. Conditions: N=3, read-out: CLint HLM. How it is done:
We then determined the in vitro metabolic stability in plasma and liver microsomes as well as plasma protein binding for a selected subset of the synthesized LecA inhibitors, i.e. D1, D2, H1, H2 and L2 and compared them to the parent bisacylhydrazone 14 (Table 2). […] The metabolic stability of the compounds differed in presence of human liver microsomes (HLM). Introduction of a pyridine ring decreased stability (H1 CLint=28.6 μL min^−1/mg protein, H2 CLint=32.5 μL min^−1/mg protein) compared to the benzene analogues (D1 CLint=21.9 μL min^−1/mg protein, D2 CLint=21.0 μL min^−1/mg protein) and to the parent acylhydrazone 14 (CLint=19.6 μL min^−1/mg protein). […]
as §1, with “mixer (Eppendorf). Acetonitrile” for “Acetonitrile”
as §2, §3

Data set [4] is described as follows: in vitro. Conditions: pH 7.4, 37 °C. It counts as in vitro ADME. How it is done: Then, we analyzed the stability of the compounds in plasma. […] The observed increase in plasma stability of the tested amide derivatives compared to bisacylhydrazone 14 supports our design hypothesis for the isosteric replacement of the bisacylhydrazone linking motif. […]
Each compound dissolved in DMSO was added to mouse plasma (pH 7.4, 37 °C) or to human plasma (pH 7.4, 37 °C) to yield a final concentration of 1 µM. In addition, procaine and procainamide (dissolved in DMSO) were added to mouse plasma or to human plasma (pH 7.4, 37 °C) to yield a final concentration of 1 µM. Procaine served as positive control as it is unstable in mouse plasma. Procainamide served as negative control as it is stable in mouse plasma. The samples were incubated for 0 min, 15 min, 30 min, 60 min, 90 min, 120 min and 240 min at 37 °C. At each time point, 10 µl of the respective sample was extracted with 90 µL acetonitrile containing 12.5 ng/mL caffeine as internal standard for 5 min at 2000 rpm on a MixMate vortex […]
as §1, with “mixer (Eppendorf). Acetonitrile” for “Acetonitrile”, “point. […]” for “point.”
2 hours at 800 rpm on an Eppendorf MixMate vortex-mixer. Then samples were withdrawn from the respective chambers. To 25 µL of each dialysis sample, 25 µL of plasma and to 25 µL of plasma sample, 25 µL of dialysis buffer was added. Then 150 µL ice-cold extraction solvent (ACN/H2O (90:10) containing 12.5 ng/mL caffeine as internal standard) was added. Samples were incubated for 30 min on ice. Then samples were centrifuged at 4 °C at 2270 x g for 10 min.

In data set [5] the test system is P. aeruginosa PAO1. The experiment in a line: Invasion assay of P. aeruginosa PAO1 into H1299 cells. It counts as cell-based, Pseudomonas aeruginosa. To be noted: PAO1 into H1299 cells, N≥4. How it is done:
P. aeruginosa is able to invade non‐phagocytic cells via a lipid zipper mechanism.[10] Binding of LecA to the glycosphingolipid Gb3 followed by LecA‐induced receptor clustering plays a crucial role in this process. The LecA ligand 4‐nitrophenyl α‐ D‐galactopyranoside (PNPG) has been previously shown to interfere with these events at a high concentration of 10 mM leading to a reduction of bacterial invasiveness to 30–60 % as compared to untreated bacteria (100 % invasiveness).[10, 31] For invasion assays, H1299 cells were incubated with P. aeruginosa in presence and absence of LecA inhibitors, followed by killing of extracellular bacteria with the antibiotic amikacin. Then, all intracellular bacteria were released by lysis of the human cells and viable bacteria were quantified by plating. To assess the impact of LecA inhibitors on the invasiveness, the influence of the divalent LecA inhibitor L2 on bacterial invasion into host cells was evaluated and compared to PNPG. […] In contrast, the divalent LecA ligand L2 achieved an invasion decrease to 44 % already at 100 μM (Figure 5c). L2 was thus able to reach a similar reduction of invasion at a 100‐fold lower concentration than the one needed for PNPG. […]
lectin-inhibitor solution for 24 h at 37 °C. In order to depict exactly the same position for each wound, marker lines were drawn on the bottom of the 12-well plates for each well. The samples were imaged with an EVOS microscope (PEQLAB by VWR Life Sciences, Avantor […]
Excel. […]
A chromosomally GFP-tagged Gentamicin-resistant Pseudomonas aeruginosa PAO1 strain was cultured (LB medium supplemented with 60 µg/mL Gentamicin, 37 °C, 180 rpm, 16 h) and invasion assays were performed in analogy to Eierhoff et al..[13] 1.5 x 10^4 H1299 cells per well were seeded one day prior to the invasion assay in a 96-well plate with flat bottom. An […]
overnight culture of P. aeruginosa was centrifuged for 5 min at 3000 x g, washed with PBS (- /-) and re-suspended in RPMI 1640 medium. The newly synthesized divalent LecA ligand L2 was compared to 4-nitrophenyl α-D-galactopyranoside (PNPG; Sigma-Aldrich, Chemie GmbH, Darmstadt, Germany). […]
Subsequently, cells were washed three times with DPBS and lysed by incubation with 0.25% (v/v) Triton X-100 (Carl Roth GmbH & Co. KG, Karlsruhe, Germany) for 5 min at 37 °C and 180 rpm. […] Bacterial colonies were counted the next day. […] The invasion rate was calculated as the number of intracellularly localized bacteria divided by the total number of non-treated bacteria, bacteria that were not treated with any ligands and neither amikacin, thus the number of P. aeruginosa that successfully invaded or stayed attached to the host cells. Experiments were repeated independently at least four times (N ≥ 4) and evaluated […]

The subject of data set [6] is P. aeruginosa. Further details: method as in PMID 25136128, PMID 25044671. Conditions: 10 mM; cited from earlier work.

For orientation: kinetic solubility means solubility judged after dilution from a stock solution rather than from solid. `O=C(N/N=C/c1ccc(OCCOc2ccc(/C=N/NC(=O)c3ccc(O[C@@H]4O[C@H](CO)[C@H](O)[C@H](O)[C@H]4O)cc3)cc2)cc1)c1ccc(O[C@@H]2O[C@H](CO)[C@H](O)[C@H](O)[C@H]2O)cc1` [Compound 14, reference compound]: in data set [1], the kinetic solubility at 1 h came out at 1.6 ± 0.4 µM (≈ 1.38 µg/mL). For the same molecule, the microsomal CLint at 1 µM in data set [2] is < 23 µL/min/mg; in data set [3] it was 19.6 µL/min/mg. The half-life at 1 µM in data set [4] (human plasma, read-out: Plasma stability t1/2 Human) was 2.06 h; in data set [4] (mouse plasma, read-out: Plasma stability t1/2 Mouse), 0.815 h.
For `O=[N+]([O-])c1ccc(O[C@H]2O[C@H](CO)[C@H](O)[C@H](O)[C@H]2O)cc1` [PNPG, 4-nitrophenyl α-D-galactopyranoside, reference compound], the “Bacterial invasiveness (untreated bacteria 100 %)” value in data set [5] (100 μM inhibitor) is on record as 89%; in data set [5] (10 mM inhibitor), 44%; in data set [6] it was 30–60%.
